Patent US7390806B2, “Antibiotics containing borinic acid complexes and methods of use” (Anacor Pharmaceuticals, Inc., priority 2002, dated 2008)
Converted amounts (≈) assume the structure as drawn. Read-outs that look alike come from different tables or passages of the source.

Key:
S. aureus ATCC 29213 = assay: MIC determination, S. aureus ATCC 29213; type: cell-based, Staphylococcus aureus; settings: for MIC: Staphylococcus aureus, read-out: MIC S. aureus ATCC 29213
E. faecalis ATCC 29212 = assay: MIC determination, E. faecalis ATCC 29212; type: cell-based, Enterococcus faecalis; settings: for MIC: Enterococcus faecalis, read-out: MIC E. faecalis ATCC 29212
E. faecium CT-26 = assay: MIC determination, E. faecium CT-26; type: cell-based, Enterococcus faecium; settings: for MIC: Enterococcus faecium, read-out: MIC E. faecium CT-26
H. influenzae ATCC 49766 = assay: MIC determination, H. influenzae ATCC 49766; type: cell-based, Haemophilus influenzae; settings: Table 2; for MIC: Haemophilus influenzae, ATCC49766
[1] = system: S. epidermidis ATCC 12228; assay: MIC determination, S. epidermidis ATCC 12228; type: cell-based, Staphylococcus epidermidis; settings: for MIC: Staphylococcus epidermidis, read-out: MIC S. epidermidis ATCC 12228
S. pneumoniae ATCC 6301 = assay: MIC determination, S. pneumoniae ATCC 6301; type: cell-based, Streptococcus pneumoniae; settings: for MIC S. pneumoniae ATCC 6301: Table 1; for MIC: Streptococcus pneumoniae, ATCC6301, Table 1, read-out: MIC S. pneumoniae ATCC 6301
[2] = system: M. catarrhalis ATCC 25238; assay: MIC determination, M. catarrhalis ATCC 25238; type: cell-based; settings: for MIC M. catarrhalis ATCC 25238: Table 1; for MIC: Moraxella catarrhalis, ATCC25238, Table 1, read-out: MIC M. catarrhalis ATCC 25238

Row | SMILES | MIC S. pneumoniae ATCC 6301 (S. pneumoniae ATCC 6301) | MIC S. aureus ATCC 29213 (S. aureus ATCC 29213; Table 1) | MIC E. faecalis ATCC 29212 (E. faecalis ATCC 29212; Table 1) | MIC M. catarrhalis ATCC 25238 [2] | MIC E. faecium CT-26 (E. faecium CT-26; Table 1) | MIC S. epidermidis ATCC 12228 ([1]; Table 1) | also measured
1 | Cc1ccc(B(OC(=O)c2ncccc2O)c2ccc(C)c(Cl)c2)cc1Cl [Compound 111, Bis(3-Chloro-4-methylphenyl)borinic acid 3-hydroxypicolinate ester] | – | – | – | – | – | – | MIC S. aureus ATCC 29213 (S. aureus ATCC 29213; Table 2): 2 micrograms per ml; MIC E. faecalis ATCC 29212 (E. faecalis ATCC 29212; Table 2): 2 micrograms per ml; MIC E. faecium CT-26 (E. faecium CT-26; Table 2): 2 micrograms per ml; MIC H. influenzae ATCC 49766 (H. influenzae ATCC 49766): 64 micrograms per ml; MIC S. epidermidis ATCC 12228 ([1]; Table 2): 1 micrograms per ml
2 | CC[C@H]1OC(=O)[C@H](C)[C@@H](O[C@H]2C[C@@](C)(OC)[C@@H](O)[C@H](C)O2)[C@H](C)[C@@H](O[C@@H]2O[C@H](C)C[C@H](N(C)C)[C@H]2O)[C@](C)(O)C[C@@H](C)C(=O)[C@H](C)[C@@H](O)[C@]1(C)O [Erythromycin, reference compound] | – | – | – | – | – | – | MIC (S. aureus ATCC 29213; ATCC29213, Table 1): 0.5 µg/mL (≈ 0.681 µM); MIC (S. aureus ATCC 29213; ATCC29213, Table 2): 0.5 µg/mL (≈ 0.681 µM); MIC (E. faecalis ATCC 29212; ATCC29212, Table 1): 2 µg/mL (≈ 2.73 µM); MIC (E. faecalis ATCC 29212; ATCC29212, Table 2): 2 µg/mL (≈ 2.73 µM); MIC (H. influenzae ATCC 49766): 4 µg/mL (≈ 5.45 µM); MIC ([1]; ATCC12228, Table 1): 0.5 µg/mL (≈ 0.681 µM); MIC ([1]; ATCC12228, Table 2): 0.5 µg/mL (≈ 0.681 µM)
3 | O=C(O)Cc1ccccn1 [Compound 106, 2-pyridylacetic acid] | – | – | – | – | – | – | MIC (S. aureus ATCC 29213; ATCC29213, Table 2): 0.5 µg/mL (≈ 3.65 µM); MIC (E. faecalis ATCC 29212; ATCC29212, Table 2): 64 µg/mL (≈ 467 µM); MIC (E. faecium CT-26; CT26, Table 2): 64 µg/mL (≈ 467 µM); MIC (H. influenzae ATCC 49766): 64 µg/mL (≈ 467 µM); MIC ([1]; ATCC12228, Table 2): 4 µg/mL (≈ 29.2 µM)
4 | Oc1cccc2cccnc12 [Compound 94, 8-hydroxyquinoline] | 1 micrograms per ml | 2 micrograms per ml | 8 micrograms per ml | 2 micrograms per ml | 4 micrograms per ml | 1 micrograms per ml | –
5 | Oc1cccc2cccnc12 [Compound 29, 8-hydroxyquinoline] | 2 micrograms per ml | 0.5 micrograms per ml | 8 micrograms per ml | 0.5 micrograms per ml | 2 micrograms per ml | 1 micrograms per ml | –
6 | Oc1cccc2cccnc12 [Compound 84, 8-hydroxyquinoline] | 2 micrograms per ml | 2 micrograms per ml | 8 micrograms per ml | 4 micrograms per ml | 4 micrograms per ml | 1 micrograms per ml | –
7 | O=[N+]([O-])c1ccc(O)c2ncccc12 [Compound 22] | – | – | – | – | – | – | MIC (S. pneumoniae ATCC 6301): 2 µg/mL (≈ 10.5 µM); MIC (S. aureus ATCC 29213; ATCC29213, Table 1): 0.5 µg/mL (≈ 2.63 µM); MIC (E. faecalis ATCC 29212; ATCC29212, Table 1): 64 µg/mL (≈ 337 µM); MIC [2]: 0.12 µg/mL (≈ 0.631 µM); MIC (E. faecium CT-26; CT26, Table 1): 16 µg/mL (≈ 84.1 µM); MIC ([1]; ATCC12228, Table 1): 4 µg/mL (≈ 21 µM)
8 | C[C@@H](O)[C@H]1C(=O)N2C(C(=O)O)=C(S[C@@H]3CN[C@H](C(=O)N(C)C)C3)[C@H](C)[C@H]12 [Meropenem, reference compound] | – | – | – | – | – | – | MIC (S. aureus ATCC 29213; ATCC29213, Table 1): 0.06 µg/mL (≈ 0.156 µM); MIC (S. aureus ATCC 29213; ATCC29213, Table 2): 0.06 µg/mL (≈ 0.156 µM); MIC (E. faecalis ATCC 29212; ATCC29212, Table 1): 2 µg/mL (≈ 5.22 µM); MIC (E. faecalis ATCC 29212; ATCC29212, Table 2): 2 µg/mL (≈ 5.22 µM); MIC (H. influenzae ATCC 49766): 0.06 µg/mL (≈ 0.156 µM); MIC ([1]; ATCC12228, Table 1): 0.06 µg/mL (≈ 0.156 µM); MIC ([1]; ATCC12228, Table 2): 0.06 µg/mL (≈ 0.156 µM)
9 | Oc1cccc2cccnc12 [Compound 97, 8-hydroxyquinoline] | 1 micrograms per ml | 2 micrograms per ml | 8 micrograms per ml | 1 micrograms per ml | 2 micrograms per ml | 1 micrograms per ml | –
10 | Oc1cccc2cccnc12 [Compound 61, 8-hydroxyquinoline] | 1 micrograms per ml | 2 micrograms per ml | 16 micrograms per ml | 2 micrograms per ml | 2 micrograms per ml | 1 micrograms per ml | –
11 | Oc1cccc2cccnc12 [Compound 95, 8-hydroxyquinoline] | 2 micrograms per ml | 2 micrograms per ml | 8 micrograms per ml | 1 micrograms per ml | 2 micrograms per ml | 1 micrograms per ml | –
12 | Oc1cccc2cccnc12 [Compound 82, 8-hydroxyquinoline] | 2 micrograms per ml | 2 micrograms per ml | 8 micrograms per ml | 4 micrograms per ml | 2 micrograms per ml | 2 micrograms per ml | –
13 | Oc1ccc(F)c2cccnc12 [Compound 57] | 4 micrograms per ml | 2 micrograms per ml | 16 micrograms per ml | 1 micrograms per ml | 4 micrograms per ml | 2 micrograms per ml | –
14 | Oc1cccc2cccnc12 [Compound 45, 8-hydroxyquinoline] | 1 micrograms per ml | 1 micrograms per ml | 8 micrograms per ml | 1 micrograms per ml | 1 micrograms per ml | 1 micrograms per ml | –
15 | Oc1cccc2cccnc12 [Compound 33, 8-hydroxyquinoline] | 1 micrograms per ml | 1 micrograms per ml | 8 micrograms per ml | 2 micrograms per ml | 2 micrograms per ml | 1 micrograms per ml | –
16 | Oc1cccc2cccnc12 [Compound 56, 8-hydroxyquinoline] | 2 micrograms per ml | 2 micrograms per ml | 8 micrograms per ml | 4 micrograms per ml | 4 micrograms per ml | 2 micrograms per ml | –
17 | Oc1ccc(Cl)c2cccnc12 [Compound 49] | 1 micrograms per ml | 2 micrograms per ml | 16 micrograms per ml | 0.25 micrograms per ml | 2 micrograms per ml | 1 micrograms per ml | –
18 | Oc1cccc2cccnc12 [Compound 93, 8-hydroxyquinoline] | 1 micrograms per ml | 2 micrograms per ml | 8 micrograms per ml | 1 micrograms per ml | 4 micrograms per ml | 1 micrograms per ml | –
19 | COc1cccc2c(O)cc(C(=O)O)nc12 [Compound 25] | – | – | – | – | – | – | MIC (S. pneumoniae ATCC 6301): 2 µg/mL (≈ 9.12 µM); MIC (S. aureus ATCC 29213; ATCC29213, Table 1): 0.5 µg/mL (≈ 2.28 µM); MIC (E. faecalis ATCC 29212; ATCC29212, Table 1): 16 µg/mL (≈ 73 µM); MIC [2]: 2 µg/mL (≈ 9.12 µM); MIC (E. faecium CT-26; CT26, Table 1): 16 µg/mL (≈ 73 µM); MIC ([1]; ATCC12228, Table 1): 8 µg/mL (≈ 36.5 µM)
20 | Oc1cccc2cccnc12 [Compound 38, 8-hydroxyquinoline] | 2 micrograms per ml | 1 micrograms per ml | 16 micrograms per ml | 1 micrograms per ml | 2 micrograms per ml | 1 micrograms per ml | –
21 | Oc1cccc2cccnc12 [Compound 41, 8-hydroxyquinoline] | 1 micrograms per ml | 1 micrograms per ml | 4 micrograms per ml | 1 micrograms per ml | 2 micrograms per ml | 1 micrograms per ml | –
